# Results from patent US6492174B1, “Methods of initiating embryogenic cultures in plants” (Institute of Paper Science & Technology, priority 2000, dated 2002).
# Key:
# [1] = system: Pinus embryogenic cultures; conditions: solid initiation media containing 30-90 mg/l ABA; cited from earlier work
# [2] = system: Loblolly pine megagametophytes; test: Loblolly pine extrusion and initiation on solid media #945 with brassinolide, eight weeks; assay type: cell-based
# Procedure: In each replicate set of ten explants, the frequency of extrusion was measured as the number of extrusions per ten megagametophytes. A successful extrusion was scored where a filamentous mass of tissue that had emerged from the megagametophyte was clearly visible. Initiation was also scored at the end of the 8th week. In each replicate set of ten explants, the frequency of initiation was recorded as the number of successful initiations out of the ten megagametophytes. A successful initiation was scored where the extruded tissue had clearly proliferated and at least one somatic embryo was visible. Often, visualization was aided by the fact that the zygotic tissue was brownish while new somatic embryos were whitish and translucent. Also, somatic embryos could often be seen growing directly from zygotic embryos.
# This experiment measured the effects of varying concentrations of brassinolide on extrusion and initiation in Loblolly pine. The explants in this experiment were megagametophytes isolated from cone collections from four open-pollinated trees, representing a multiplicity of genotypes. The seeds contained Stage 2-4 zygotic embryos. Seeds were sterilized as described in Example 1. Seed coats were split and the megagametophytes were isolated by removing integuments and nucellus. Isolated megagametophytes were placed on solid media. […] The treatment media consisted of media #945 with added brassinolide varying from 0.005 to 0.1 μM (Table 10). The experiment consisted of three replications per treatment, per genotype.
# Initiation frequency was increased by the addition of brassinolide at all concentrations (Table 12). There was no clear concentration effect within the tested range. […] One of skill in the art could empirically determine the upper and lower effective concentration of brassinolide which is effective in promoting initiation.
# [3] = system: Loblolly pine megagametophytes; test: Loblolly pine extrusion and initiation on solid media #1042 (no ABA) with brassinolide, eight weeks; assay type: cell-based
# Procedure: The promotion of extrusion and initiation in Example 4 was obtained on media containing both brassinolide and abscisic acid (ABA). ABA is known in the art to enhance initiation. This experiment was conducted to determine if brassinolide will promote initiation independently of ABA. The explants were megagametophytes from summer cone collections from four individual trees, each representing a distinct genotype. The seeds contained Stage 2-4 zygotic embryos. Megagametophytes were excised from sterilized seeds, as described in Example 4.
# The control media was solid media #1042, which contains no ABA or brassinolide (Table 47). Treatment media were composed of #1042 plus 0, 0.025, 0.10 or 0.25 μM brassinolide (Table 13). While still liquid, 2 ml media was poured into wells on a culture well plate and allowed to solidify. […] Each replication consisted of ten megagametophytes in adjacent wells on a single well plate. Plates were wrapped with PARAFILM and incubated at 23-24° C. in the dark.
# Both extrusion (Table 14) and initiation (Table 15) frequencies were higher in the brassinolide treatments than in the control. There was no clear brassinolide concentration effect within the tested range. […] One of skill in the art can empirically determine the optimal effective upper and lower brassinolide concentration limits for solid media.
structure (smiles),measurement,setting,value
"CC1=CC(=O)CC(C)(C)C1(O)/C=C/C(C)=C\C(=O)O (stereo not drawn) [ABA, 5-(1-hydroxy-2,6,6,-trimethyl-4-oxo-2-cyclohexen-1-yl)-3-methyl-2,4-penta dienoic acid]",initiation frequencies,[1],30-38%
CC(C)[C@H](C)[C@@H](O)[C@H](O)[C@@H](C)[C@H]1CC[C@H]2[C@@H]3COC(=O)[C@H]4C[C@H](O)[C@H](O)C[C@]4(C)[C@H]3CC[C@]12C [brassinolide],Initiation frequency vs control,[2]; brassinolide at all concentrations (0.005 to 0.1 μM),increased
same,% of Megagametophytes Extruding,"[2]; genotype FC, 0.005 μM Br",40.0 (5.8) %
same,% of Megagametophytes Initiating,"[2]; genotype FC, 0.005 μM Br",0 (0) %
same,% of Megagametophytes Extruding,"[2]; genotype FC, 0.01 μM Br",20.0 (5.8) %
same,% of Megagametophytes Initiating,"[2]; genotype FC, 0.01 μM Br",6.7 (3.3) %
same,% of Megagametophytes Extruding,"[2]; genotype FC, 0.025 μM Br",40.0 (5.8) %
same,% of Megagametophytes Initiating,"[2]; genotype FC, 0.025 μM Br",0 (0) %
same,% of Megagametophytes Extruding,"[2]; genotype FC, 0.05 μM Br",26.7 (3.3) %
same,% of Megagametophytes Initiating,"[2]; genotype FC, 0.05 μM Br",0 (0) %
same,% of Megagametophytes Extruding,"[2]; genotype FC, 0.1 μM Br",31.8 (16.5) %
same,% of Megagametophytes Initiating,"[2]; genotype FC, 0.1 μM Br",3.7 (3.7) %
same,% of Megagametophytes Extruding,"[2]; genotype FT, 0.005 μM Br",96.7 (3.3) %
same,% of Megagametophytes Initiating,"[2]; genotype FT, 0.005 μM Br",53.3 (12.0) %
same,% of Megagametophytes Extruding,"[2]; genotype FT, 0.01 μM Br",86.7 (8.8) %
same,% of Megagametophytes Initiating,"[2]; genotype FT, 0.01 μM Br",43.3 (16.7) %
same,% of Megagametophytes Extruding,"[2]; genotype FT, 0.025 μM Br",93.3 (6.7) %
same,% of Megagametophytes Initiating,"[2]; genotype FT, 0.025 μM Br",46.7 (12.0) %
same,% of Megagametophytes Extruding,"[2]; genotype FT, 0.05 μM Br",93.3 (3.3) %
same,% of Megagametophytes Initiating,"[2]; genotype FT, 0.05 μM Br",53.3 (8.8) %
same,% of Megagametophytes Extruding,"[2]; genotype FT, 0.1 μM Br",86.7 (3.3) %
same,% of Megagametophytes Initiating,"[2]; genotype FT, 0.1 μM Br",50 (3.3) %
same,% of Megagametophytes Extruding,"[2]; genotype FW, 0.005 μM Br",83.3 (8.8) %
same,% of Megagametophytes Initiating,"[2]; genotype FW, 0.005 μM Br",20 (5.8) %
same,% of Megagametophytes Extruding,"[2]; genotype FW, 0.01 μM Br",50.0 (10.0) %
same,% of Megagametophytes Initiating,"[2]; genotype FW, 0.01 μM Br",3.3 (3.3) %
same,% of Megagametophytes Extruding,"[2]; genotype FW, 0.025 μM Br",64.8 (13.4) %
same,% of Megagametophytes Initiating,"[2]; genotype FW, 0.025 μM Br",20.7 (11.6) %
same,% of Megagametophytes Extruding,"[2]; genotype FW, 0.05 μM Br",70.0 (11.5) %
same,% of Megagametophytes Initiating,"[2]; genotype FW, 0.05 μM Br",13.3 (8.8) %
same,% of Megagametophytes Extruding,"[2]; genotype FW, 0.1 μM Br",73.3 (8.8) %
same,% of Megagametophytes Initiating,"[2]; genotype FW, 0.1 μM Br",30 (5.8) %
same,% of Megagametophytes Extruding,"[2]; genotype FX, 0.005 μM Br",53.3 (8.8) %
same,% of Megagametophytes Initiating,"[2]; genotype FX, 0.005 μM Br",26.7 (8.8) %
same,% of Megagametophytes Extruding,"[2]; genotype FX, 0.01 μM Br",63.3 (14.5) %
same,% of Megagametophytes Initiating,"[2]; genotype FX, 0.01 μM Br",33.3 (12.0) %
same,% of Megagametophytes Extruding,"[2]; genotype FX, 0.025 μM Br",70.0 (5.8) %
same,% of Megagametophytes Initiating,"[2]; genotype FX, 0.025 μM Br",23.3 (3.3) %
same,% of Megagametophytes Extruding,"[2]; genotype FX, 0.05 μM Br",73.3 (8.8) %
same,% of Megagametophytes Initiating,"[2]; genotype FX, 0.05 μM Br",43.3 (6.7) %
same,% of Megagametophytes Extruding,"[2]; genotype FX, 0.1 μM Br",76.7 (8.8) %
same,% of Megagametophytes Initiating,"[2]; genotype FX, 0.1 μM Br",36.7 (8.8) %
same,concentrations at which brassinolide was effectively used,[2]; in our media,0.005 to 0.25 µM
same,% of Megagametophytes Extruding,"[2]; total, 0.005 μM Br",68.3%
same,% of Megagametophytes Initiating,"[2]; total, 0.005 μM Br",25.0%
same,% of Megagametophytes Extruding,"[2]; total, 0.01 μM Br",55.0%
same,% of Megagametophytes Initiating,"[2]; total, 0.01 μM Br",21.7%
same,% of Megagametophytes Extruding,"[2]; total, 0.025 μM Br",67.0%
same,% of Megagametophytes Initiating,"[2]; total, 0.025 μM Br",22.7%
same,% of Megagametophytes Extruding,"[2]; total, 0.05 μM Br",65.8%
same,% of Megagametophytes Initiating,"[2]; total, 0.05 μM Br",27.5%
same,% of Megagametophytes Extruding,"[2]; total, 0.1 μM Br",67.1%
same,% of Megagametophytes Initiating,"[2]; total, 0.1 μM Br",30.1%
same,extrusion and initiation frequencies vs control,"[3]; 0.025, 0.10 or 0.25 μM brassinolide, absence of ABA",higher
same,% of Megagametophytes Extruding,"[3]; genotype 5-1207, 0.025 μM Br",38.3 (15.9) %
same,% of Megagametophytes Initiating,"[3]; genotype 5-1207, 0.025 μM Br",27.5 (16.3) %
same,% of Megagametophytes Extruding,"[3]; genotype 5-1207, 0.10 μM Br",30.0 (13.3) %
same,% of Megagametophytes Initiating,"[3]; genotype 5-1207, 0.10 μM Br",20 (15.3) %
same,% of Megagametophytes Extruding,"[3]; genotype 5-1207, 0.25 μM Br",20.0 (10.0) %
same,% of Megagametophytes Initiating,"[3]; genotype 5-1207, 0.25 μM Br",16.7 (8.8) %
same,% of Megagametophytes Extruding,"[3]; genotype 7-1051, 0.025 μM Br",43.3 (8.8) %
same,% of Megagametophytes Initiating,"[3]; genotype 7-1051, 0.025 μM Br",20 (20.0) %
same,% of Megagametophytes Extruding,"[3]; genotype 7-1051, 0.10 μM Br",46.7 (13.3) %
same,% of Megagametophytes Initiating,"[3]; genotype 7-1051, 0.10 μM Br",26.7 (8.8) %
same,% of Megagametophytes Extruding,"[3]; genotype 7-1051, 0.25 μM Br",53.3 (12.0) %
same,% of Megagametophytes Initiating,"[3]; genotype 7-1051, 0.25 μM Br",16.7 (8.8) %
same,% of Megagametophytes Extruding,"[3]; genotype 11-1055, 0.025 μM Br",66.7 (3.3) %
same,% of Megagametophytes Initiating,"[3]; genotype 11-1055, 0.025 μM Br",53.3 (6.7) %
same,% of Megagametophytes Extruding,"[3]; genotype 11-1055, 0.10 μM Br",63.3 (13.3) %
same,% of Megagametophytes Initiating,"[3]; genotype 11-1055, 0.10 μM Br",46.7 (14.5) %
same,% of Megagametophytes Extruding,"[3]; genotype 11-1055, 0.25 μM Br",70.0 (11.5) %
same,% of Megagametophytes Initiating,"[3]; genotype 11-1055, 0.25 μM Br",53.3 (8.8) %
same,% of Megagametophytes Extruding,"[3]; genotype 11-1507, 0.025 μM Br",26.7 (6.7) %
same,% of Megagametophytes Initiating,"[3]; genotype 11-1507, 0.025 μM Br",13.3 (3.3) %
same,% of Megagametophytes Extruding,"[3]; genotype 11-1507, 0.10 μM Br",36.7 (3.3) %
same,% of Megagametophytes Initiating,"[3]; genotype 11-1507, 0.10 μM Br",16.7 (8.8) %
same,% of Megagametophytes Extruding,"[3]; genotype 11-1507, 0.25 μM Br",23.3 (3.3) %
same,% of Megagametophytes Initiating,"[3]; genotype 11-1507, 0.25 μM Br",13.3 (3.3) %
same,% of Megagametophytes Extruding,"[3]; total, 0.025 μM Br",43.8%
same,% of Megagametophytes Initiating,"[3]; total, 0.025 μM Br",28.5%
same,% of Megagametophytes Extruding,"[3]; total, 0.10 μM Br",44.2%
same,% of Megagametophytes Initiating,"[3]; total, 0.10 μM Br",27.5%
same,% of Megagametophytes Extruding,"[3]; total, 0.25 μM Br",41.7%
same,% of Megagametophytes Initiating,"[3]; total, 0.25 μM Br",25.0%
